We go through four compounds from patent US9120819B2, “FGF-receptor agonist dimeric compounds” (SANOFI, priority 2006, dated 2015).

The structures appear in SMILES notation.

The test system of assay [1] is human vein endothelial cells (HUVECs). Kind of assay: In vitro angiogenesis model (HUVEC rearrangement on matrigel, pseudotubule length). It is filed as cell-based. To be noted: at a concentration of 10 nM, 24 hours. As for the experimental part:
In vitro Angiogenesis Model
The products are tested in terms of inducing the rearrangement of human vein endothelial cells (HUVECs) on matrigel (Becton dickinson 356230) diluted in collagen (rat tail collagen, type I: Becton dickinson 354236). After 24 hours, the cells are observed under the microscope with a X4 objective and the length of the pseudotubules is measured by means of an image analyser (BIOCOM-Visiolab 2000 software).

Assay [2] relates to C57 mice. Kind of assay: Model of post-ischaemic leg revascularization in mice. The class given is in vivo. To be noted: 30 mg/kg/day administered subcutaneously for 7 days. The protocol:
Model of Post-Ischaemic Leg Revascularization in Mice
The experiment is carried out on C57 mice (IFFA CREDO France).
The animals are anaesthetized by intraperitonal injection, in a volume of 10 ml/kg, of a solution of 50 mg/kg ketamine (Ketamine 1000 Virbac®, Virbac Carros France) and 10 mg/kg xylazine (Rompun 2%®, Bayer Pharma Puteaux France). The animal is placed so that it is lying on its back, and after shaving and disinfection of the skin by painting with Vetedine® solution (Vetoquinol S.A. Lure France), an incision is made in the inguinal region. The femoral artery is excized, the collateral arteries are cauterized and the external and circumflex iliac arteries are ligatured. The skin is sutured with separate stitches using non-resorbable thread. The animals are placed in the recovery room, the temperature of which is regulated at 25° C., until they are completely awake.
The distal perfusion is measured using a laser Doppler scanner (LDPI Lisca Perimed model PIM II, AB Sweden). This technique makes it possible to measure the cutaneous perfusion of the upper part of the back legs. […] Measurements are carried out successively on the healthy leg and on the leg rendered ischaemic in order to establish a perfusion deficit expressed as %. […]

Assay [3] relates to FGF-R4α-hMp1. Kind of assay: Baf/3-FGF-R4α proliferation model. The class given is cell-based, murine. The settings on record: at a concentration of 30 μM. The protocol: (§1) Baf/3-FGFR1β or FGF-R4α Proliferation Model
(§2) Obtaining the Chimeric Receptor Constructs
(§3) The chimeric receptors are made up of the intracellular portion of hMp1 (NM_005373) and the transmembrane and extracellular domains of FGF-R1β or FGF-R4α.
(§4) For each FGF receptor, the FGF-R (BamHI-SacI) and hMp1 (SacI-NotI) fragments are simultaneously cloned into the vector pEF6 (Invitrogen) digested with BamHI and NotI.
(§5) Murine BaF/3 cells are transfected by electroporation. 20 μg of plasmid carrying the constructs FGF-R1β-hMp1 or FGF-R4α-hMp1 are mixed with 5×10^6 cells taken up in 800 μl of RPMI (invitrogen). The mixture is subjected to two electric shocks of 400 V with an interval of 0.1 ms. The cells are taken up for 48 h in an RPMI medium containing 10% FCS (foetal calf serum, gibco), glutamine (invitrogen), NEAA (nonessential amino acids, invitrogen), NaPyr (sodium pyruvate, invitrogen) and 10 ng/ml of IL-3, before being selected with 10 μg/ml of blasticidin (Cayla).
(§6) Culture of Transfected Cells […]
(§7) A confluent culture of BaF/3 cells carrying the chimeric receptors is passaged one-in-three in culture medium supplemented with IL-3 (10 ng/ml) for 24 h. […] The plates are incubated for 28 h at 37° C. and then 100 μl of Cell Titer Glo (Promega) are added and the amount of ATP is quantified using a luminometer (Luminoskan Ascent, Labsystems).

Assay [4] concerns FGF-R1β-hMp1. Nature of the assay: Baf/3-FGFR1β proliferation model. It is filed as cell-based, murine. To be noted: at a concentration of 30 μM. As for the experimental part:
as §1, §2, §3, §4, §5, §6, §7

For the compound `COc1c(C)c(C(=O)c2ccc(N)c(C(=O)[O-])c2)n2cccc(OCCOCCOCCOCCOCCOCCOc3cccn4c(C(=O)c5ccc(N)c(C(=O)[O-])c5)c(C)c(OC)c34)c12.[Na+].[Na+]` [Example 2, disodium salt of 3,3′-{3,6,9,12,15-pentaoxaheptadecane-1,17-diylbis[oxy(1-methoxy-2-methylindolizine-8,3-diyl)carbonyl]}bis(6-aminobenzoic acid)], the “activity on the in vitro angiogenesis model” value in assay [1] was “active”.

Consider `Cc1c(OCCOCCOCCOCCOCCOCCOCCOc2c(C)c(C(=O)c3ccc(N)c(C(=O)[O-])c3)n3ccccc23)c2ccccn2c1C(=O)c1ccc(N)c(C(=O)[O-])c1.[Na+].[Na+]` [Example 21, Disodium salt of 3,3′-{3,6,9,12,15,18-hexaoxaicosane-1,20-diylbis[oxy(2-methylindolizine-1,3-diyl)carbonyl]}bis(6-aminobenzoic acid)], for which the “activity in the ischaemic leg model (post-ischaemic perfusion recovery)” value in assay [2] was “significant activity”.

Regarding `COc1cc(C(=O)c2nc(-c3cccc(C(=O)[O-])c3)c3c(OCCOCCOCCOCCOCCOCCOc4cccn5c(C(=O)c6ccc(N)c(OC)c6)nc(-c6cccc(C(=O)[O-])c6)c45)cccn23)ccc1N.[Na+].[Na+]` [Example 8, Disodium salt of 3,3′-(3,6,9,12,15-pentaoxaheptadecane-1,17-diylbis{oxy[3-(4-amino-3-methoxybenzoyl)imidazo[1,5-a]pyridine-8,1-diyl]})dibenzoic acid], in assay [1], the “activity on the in vitro angiogenesis model” value is listed as “active”. Consider `Cc1c(NC(=O)c2cccc(OCC(=O)NCCNC(=O)COc3cccc(C(=O)Nc4c(C)c(C(=O)c5ccc(N)c(C(=O)[O-])c5)n5ccccc45)c3)c2)c2ccccn2c1C(=O)c1ccc(N)c(C(=O)[O-])c1.[Na+].[Na+]` [Example 44], for which the “activity on the Baf/3-FGF-R4α proliferation” value in assay [3] is on record as “active”. For the same compound, the “activity on the Baf/3-FGFR1β proliferation” value in assay [4] is “active”.
